The record followed here is ChEMBL document CHEMBL2407046, “Synthesis of 2α-heteroarylalkyl active vitamin d3 with therapeutic effect on enhancing bone mineral density in vivo” (ACS Med Chem Lett, 2013).

One data set has as its target T1, Vitamin D3 receptor (Homo sapiens, UniProt P11473).
T1 sequence (P11473 whole entry): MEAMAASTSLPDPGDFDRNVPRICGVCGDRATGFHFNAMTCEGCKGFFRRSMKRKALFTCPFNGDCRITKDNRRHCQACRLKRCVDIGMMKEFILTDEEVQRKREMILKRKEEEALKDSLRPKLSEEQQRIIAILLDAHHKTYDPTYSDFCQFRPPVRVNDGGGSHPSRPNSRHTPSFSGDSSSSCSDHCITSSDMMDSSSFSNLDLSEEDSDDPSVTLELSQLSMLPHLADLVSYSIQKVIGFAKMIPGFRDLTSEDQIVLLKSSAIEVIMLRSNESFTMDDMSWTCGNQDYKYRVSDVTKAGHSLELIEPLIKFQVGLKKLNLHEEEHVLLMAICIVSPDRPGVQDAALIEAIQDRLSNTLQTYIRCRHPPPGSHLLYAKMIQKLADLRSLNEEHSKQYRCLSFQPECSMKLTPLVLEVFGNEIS
Briefly: Transactivation of VDR-mediated osteocalcin promoter in human HOS/SF cells after 24 hrs by luciferase reporter gene assay. The data set is classed as cell-based. (In general: A reporter such as luciferase makes a cellular process visible.)

The test system of data set [1] is Rattus norvegicus. Briefly: Antiosteoporotic activity in ovariectomized Sprague-Dawley rat osteoporosis model assessed as increase in bone mineral density in spine at 0.02 mg/kg/day administered 5 times a week for 4 weeks measured 24 hrs post last dose by dual X-ray absorption meter (reference value: 0.209 +/- 0.011 g/cm'2). The format is functional.
Data set [2] concerns Rattus norvegicus. The data set can be described thus: Toxicity in ovariectomized Sprague-Dawley rat osteoporosis model assessed as increase in serum Ca level at 0.007 mg/kg/day administered 5 times a week for 4 weeks measured 24 hrs post last dose (reference value: 9.25 +/- 0.11 mg/dL). The data set is classed as organism-based. Conditions: in vivo.
The test system of data set [3] is Rattus norvegicus. The data set can be described thus: Antiosteoporotic activity in ovariectomized Sprague-Dawley rat osteoporosis model assessed as increase in bone mineral density in spine at 0.007 mg/kg/day administered 5 times a week for 4 weeks measured 24 hrs post last dose by dual X-ray absorption meter (reference value: 0.209 +/- 0.011 g/cm'2). The data set is classed as functional.

For data set [4], the system named is Rattus norvegicus. Briefly: Toxicity in ovariectomized Sprague-Dawley rat osteoporosis model assessed as increase in serum Ca level at 0.02 mg/kg/day administered 5 times a week for 4 weeks measured 24 hrs post last dose (reference value: 9.25 +/- 0.11 mg/dL). The data set is classed as organism-based. To be noted: in vivo.
Data set [5] deals with Rattus norvegicus. The data set can be described thus: Toxicity in ovariectomized Sprague-Dawley rat osteoporosis model assessed as increase in serum Ca level at 0.1 mg/kg/day administered 5 times a week for 4 weeks measured 24 hrs post last dose (reference value: 9.14 +/- 0.24 mg/dL). The format is organism-based. To be noted: in vivo.
In data set [6] the test system is Rattus norvegicus. The data set can be described thus: Toxicity in ovariectomized Sprague-Dawley rat osteoporosis model assessed as increase in serum Ca level at 0.025 mg/kg/day administered 5 times a week for 4 weeks measured 24 hrs post last dose (reference value: 9.14 +/- 0.24 mg/dL). The data set is classed as organism-based. To be noted: in vivo.
Data set [7] deals with Rattus norvegicus. The data set can be described thus: Antiosteoporotic activity in ovariectomized Sprague-Dawley rat osteoporosis model assessed as increase in bone mineral density in spine at 0.025 mg/kg/day administered 5 times a week for 4 weeks measured 24 hrs post last dose by dual X-ray absorption meter (reference value: 0.209 +/- 0.019 g/cm'2). The format is functional.

The subject of data set [8] is Rattus norvegicus. Briefly: Antiosteoporotic activity in ovariectomized Sprague-Dawley rat osteoporosis model assessed as increase in bone mineral density in spine at 0.1 mg/kg/day administered 5 times a week for 4 weeks measured 24 hrs post last dose by dual X-ray absorption meter (reference value: 0.209 +/- 0.019 g/cm'2). The format is functional.

For the compound `C=C1/C(=C\C=C2/CCC[C@]3(C)[C@@H]([C@H](C)CCCC(C)(C)O)CC[C@@H]23)C[C@@H](O)[C@H](CCn2ncnn2)[C@@H]1O`, on Vitamin D3 receptor, the EC50 worked out at 0.01 nM. The Activity in the data set with Rattus norvegicus [1] stood at 0.223 g/cm2; with Rattus norvegicus [2], 9.41 mg/dL; with Rattus norvegicus [3], 0.214 g/cm2; with Rattus norvegicus [4], 9.66 mg/dL.

For `C=C1/C(=C\C=C2/CCC[C@]3(C)[C@@H]([C@H](C)CCCC(C)(C)O)CC[C@@H]23)C[C@@H](O)[C@H](CCn2cnnn2)[C@@H]1O`, at Vitamin D3 receptor, the EC50 turned out to be 0.29 nM.

Turning to `C=C1/C(=C\C=C2/CCC[C@]3(C)[C@@H]([C@H](C)CCCC(C)(C)O)CC[C@@H]23)C[C@@H](O)[C@H](CCn2cncn2)[C@@H]1O`, the EC50 on Vitamin D3 receptor was 0.15 nM.

For the compound `C=C1/C(=C\C=C2/CCC[C@]3(C)[C@@H]([C@H](C)CCCC(C)(C)O)CC[C@@H]23)C[C@@H](O)[C@H](CCn2nccn2)[C@@H]1O`, the 50% effective concentration (EC50) on Vitamin D3 receptor was 0.044 nM.

On to `C=C1/C(=C\C=C2/CCC[C@]3(C)[C@@H]([C@H](C)CCCC(C)(C)O)CC[C@@H]23)C[C@@H](O)[C@H](CCn2ccnn2)[C@@H]1O`, for which the EC50 at Vitamin D3 receptor was 0.21 nM.

For the compound `C=C1/C(=C\C=C2/CCC[C@]3(C)[C@@H]([C@H](C)CCCC(C)(C)O)CC[C@@H]23)C[C@@H](O)[C@H](CCn2ccnc2)[C@@H]1O`, the EC50 at Vitamin D3 receptor was 0.68 nM.

In the case of `C=C1/C(=C\C=C2/CCC[C@]3(C)[C@@H]([C@H](C)CCCC(C)(C)O)CC[C@@H]23)C[C@@H](O)C[C@@H]1O` [CALCITRIOL], the Activity in the data set with Rattus norvegicus [5] was 10.35 mg/dL; in the data set on Rattus norvegicus [6], 10.14 mg/dL; in the data set on Rattus norvegicus [7], 0.218 g/cm2; with Rattus norvegicus [8] it was 0.228 g/cm2.

The EC50 is the concentration at which the effect is half-maximal.
